One assay deals with HCV replicon genotype 1a. Kind of assay: HCV replicon assay, genotype 1a (cell ELISA for NS3/4A). As to conditions: Hepatitis C virus, 96 h, read-out: 1a IC50 (nM), HCV genotype 1a replicon cells, 96 hours incubation, NS3/4A ELISA readout, % of DMSO control. It counts as cell-based, hepatitis C virus. The procedure, abridged:
(§1)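 Readout is NS3/4A protein level from an antibody-based cell ELISA, serving as an indirect measure of replicon RNA; IC50 fitted with a four-parameter function relative to DMSO control. Replicon cells, kept under G418 beforehand, were plated with serial compound dilutions minus G418 for 96 hours.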

For the next assay, the system named is HCV replicon genotype 1b. The assay can be described thus: HCV replicon assay, genotype 1b (cell ELISA for NS3/4A). The conditions noted are these: Hepatitis C virus, 96 h, read-out: 1b IC50 (nM), HCV genotype 1b replicon cells, 96 hours incubation, NS3/4A ELISA readout, % of DMSO control. It counts as cell-based, hepatitis C virus. The procedure, abridged:
as §1
For orientation: Replicon systems follow genome replication, usually without infectious particles.

Data on 1 compound can be found in patent publication US9549921B2, “Heterocyclic compounds and methods of use thereof for the treatment of hepatitis C” (priority 2014, dated 2017).

Take `CNC(=O)c1c(-c2ccc(F)cc2)oc2cc(N(C)S(C)(=O)=O)c([C@@H]3CCCN(C(=O)c4ccc(F)cc4)C3)cc12` (single isomer, unassigned) [Example 19, 5-(1-(4-fluorobenzoyl)piperidin-3-yl)-2-(4-fluorophenyl)-N-methyl-6-(N-methylmethylsulfonamido)benzofuran-3-carboxamide]: the IC50 in the assay on HCV replicon genotype 1a was 43.8 nM; in the assay with HCV replicon genotype 1b it was 50.8 nM.
